Measured values from patent US12624057B2, “Bisphosphonate quinolone conjugates and uses thereof” (BIOVINC, LLC, priority 2016, dated 2026).
“Also recorded” adds a separate entry of the source.

Legend:
Assay type in all cases: cell-based, Staphylococcus aureus
S. aureus 6538 = assay: Preventative assay, HA spherules pretreated then inoculated with S. aureus
Protocol: Preventative ability of BP-ciprofloxacin conjugate to inhibit S. aureus 6538 adherence to HA spherules: Various BP-ciprofloxacin concentrations were introduced to HA powder (spherules) suspended in TSB microbiological medium. Solutions containing conjugate and HA spherules were introduced to wells of 24-well plates. Final concentrations of powder were 10 mg/1 mL, while final concentrations of the conjugate were 0.12-250 mg/L. Suspensions were left for 24 h/37° C./shaking. After 24 h, suspensions were removed from the wells and impulse-centrifuged to precipitate HA powder. Next, supernatant was very gently discarded and a fresh 1 mL of S. aureus of density 10^5 cfu/mL was introduced to the HA spherules. Subsequently, this solution was shaken, absorbance was measured using 580 nm wavelength and left for 24 h/37° C./shaking. After incubation absorbance was measured again and values from 0 hr and 24 hrs were compared to assess reduction of bacterial growth with regard to control sample one (bacterial suspension but no spherules) and control sample two (bacterial suspension+spherules but with no conjugate added). Additionally, solutions were impulse-centrifuged, supernatant was gently discarded, while bacteria-containing HA spherules were culture plated as before and quantitatively assessed. […]

[1] = tested on: S. aureus ATCC6538 biofilms; assay: Survival of S. aureus biofilm on pretreated, rinsed HA discs; conditions: pretreated HA discs
Protocol: HA discs incubated in DMSO or phosphate buffer served as control samples. Next, discs were rinsed 3 times with sterile water. After rinsing, 2 mL of 0.5 MF of. S. aureus ATCC6538 were introduced to wells containing HA discs as a substrate for biofilm development and biofilms were formed as before.

[2] = tested on: planktonic S. aureus clinical osteomyelitis strains (MSSA and MRSA); assay: MIC by microdilution against planktonic clinical S. aureus strains; conditions: for antimicrobial activity / MIC against planktonic S. aureus (in words): microdilution, 24 h
Protocol: (§1) Subsequently, the plate was incubated for 24 h/37° C. in a shaker to obtain optimal conditions for microbial growth and to prevent bacteria from forming biofilms. After incubation, the absorbance was measured once again. The following control samples were established: negative control sample one: sterile medium without microbes; negative control sample two: sterile medium without microbes implemented with DMSO (dimethyl sulfoxide, Sigma-Aldritch) to final concentration of 1% (v/v); positive control sample one: medium+microbes with no compound tested; positive control sample two: medium+microbes with no compound tested but implemented with DMSO to final concentration of 1% (v/v). […] To assess relative number of cells, the following calculations were performed. […] Next, the relative number of cells subjected to incubation with tested compounds were counted as follows: […].
as §1, with “Evaluation of the MIC of tested compounds against planktonic forms of clinical staphylococcal strains analyzed: To assess the impact of parent antibiotic and conjugates on microbial growth, 100 μl of microbial solutions of density 1×10^5 CFU/ml were placed into wells of 96-well test plates together with appropriate concentrations of tested compounds. […] Subsequently,” for “Subsequently,”, “plates were” for “the plate was”, “hrs/37°” for “h/37°”, “Sigma-Aldrich)” for “Sigma-Aldritch)”
The occurrence of opacification or lack of opacification of media was proof of pathogen growth or lack of growth, respectively. Additionally, bacterial solutions were cultured on the appropriate stable medium. Growth or lack of growth of bacterial colonies together with above-mentioned results from liquid cultures served as confirmation of results obtained spectrophotometrically.

[3] = tested on: biofilms of S. aureus strain ATCC-6538; assay: Preformed biofilms on HA discs, S. aureus; conditions: HA as substrate
Protocol: Antimicrobial susceptibility testing of BP-ciprofloxacin against preformed biofilms of S. aureus strain ATCC-6538 and P. aeruginosa strain ATCC-15442: Strains cultured on appropriate agar plates (Columbia agar plate for S. aureus; MacConkey agar plate for P. aeruginosa) were transferred to liquid microbiological media and incubated for 24 h/37° C. under aerobic conditions. After incubation, strains were diluted to the density of 1 MF. The microbial dilutions were introduced to wells of 24-well plates containing HA discs as a substrate, or simply to polystyrene wells where the bottom surface of the wells served as the substrate for biofilm development. Strains were incubated at 37° C. for 4 hrs. Next, the microbe-containing solutions were removed from the wells. The surfaces, HA discs and polystyrene plates, were gently rinsed to leave adhered cells and to remove planktonic or loosely-bound microbes. Surfaces prepared in this manner were immersed in fresh TSB medium containing 0.24-125 mg/L of BP-ciprofloxacin conjugate. After 24 hrs of incubation at 37° C. the surfaces were rinsed using physiological saline solution and transferred to 1 mL of 0.5% saponin (Sigma-Aldrich, St Louis, MO). The surfaces were vortex-mixed vigorously for 1 minute to detach cells. Subsequently, all microbial suspensions were diluted 10 to 10^9 times. Each dilution ([…]) was cultured on the appropriate stable medium (MacConkey, Columbia for P. aeruginosa and S. aureus, respectively) and incubated at 37-C for 24 hours. After this time, the microbial colonies were counted and the number of cells forming biofilm was assessed. Results were presented as the mean number of CFU per square millimeter surface±standard error of the mean. To estimate the exact surface area of HA discs, x-ray tomographic analysis was applied. For estimation of the area of test plate bottoms, the equation for circle area: πr2 was applied.
Antimicrobial susceptibility testing of 6 against preformed biofilms of S. aureus strain ATCC-6538 and P. aeruginosa strain ATCC-15442: Strains cultured on appropriate agar plates (Columbia agar plate for S. aureus; MacConkey agar plate for P. aeruginosa) were transferred to liquid microbiological media and incubated for 24 hrs/37° C. under aerobic conditions. After incubation, strains were diluted to the density of 1 MF. The microbial dilutions were introduced to wells of 24-well plates containing HA discs as a substrate, or simply to polystyrene wells where the bottom surface of the wells served as the substrate for biofilm development. Strains were incubated at 37° C. for 4 hrs. Next, the microbe-containing solutions were removed from the wells. The surfaces, HA discs and polystyrene plates, were gently rinsed to leave adhered cells and to remove planktonic or loosely-bound microbes. […] After 24 hrs of incubation at 37° C. the surfaces were rinsed using physiological saline solution and transferred to 1 mL of 0.5% saponin (Sigma-Aldrich, St Louis, MO). The surfaces were vortex-mixed vigorously for 1 minute to detach cells. Subsequently, all microbial suspensions were diluted 10-1 to 10-9 times. Each dilution ([…]) was cultured on the appropriate stable medium (MacConkey, Columbia for P. aeruginosa and S. aureus, respectively) and incubated at 37° C. for 24 hrs. After this time, the microbial colonies were counted and the number of cells forming biofilm was assessed. Results were presented as the mean number of CFU per square millimeter surface±standard error of the mean. To calculate the surface area of HA discs, x-ray tomographic analysis was applied. For estimation of the area of test plate bottoms, the equation for circle area: πr^2 was applied.

## O=C(O)c1cn(C2CC2)c2cc(N3CCN(C(=O)c4ccc(CC(P(=O)(O)O)P(=O)(O)O)cc4)CC3)c(F)cc2c1=O [Compound 11, 1-cyclopropyl-7-(4-(4-(2,2-diphosphonoethyl)benzoyl)piperazin-1-yl)-6-fluoro-4-oxo-1,4-dihydroquinoline-3-carboxylic acid]
S. aureus 6538
  preventative antimicrobial activity on pretreated HA (in words): insignificant; also recorded: not detectable; also recorded: no antimicrobial activity is observed
[1]
  ability to prevent biofilm formation on pretreated HA (in words): no significant antimicrobial activity
[1]; listed as BAC
  ability to prevent biofilm formation on pretreated HA (in words): did not inhibit the growth of biofilms on bone substitute even at very high concentrations
[2]; MIC assay, S. aureus strains
  concentration of 11 relative to 6 to achieve the same antibacterial effect: 2-64 ×
[2]
  antimicrobial activity / MIC against planktonic S. aureus (in words): weaker activity
[2]; listed as BAC
  antimicrobial activity / MIC against planktonic S. aureus (in words): very little effect on bacterial growth under any circumstances; also recorded: has lost most of the activity
[3]
  bactericidal activity / reduction of CFUs against established biofilm (in words): insignificant; also recorded: No significant activity is observed at any concentration
